Source: patent US20050124607A1, “5-Substituted quinazolinone compounds useful as alpha 1A/B adrenergic receptor antagonists” (priority 2003, published 2005)
Where a name gives a salt, the structure may show the parent alone.

| SMILES | melting point [°C] |
| --- | --- |
| COc1cc2[nH]c(N3CCN(c4cccc(C)n4)CC3)nc(=O)c2c(C)c1OC [Example 42, 6,7-Dimethoxy-5-meth-yl-2-[4-(6-methyl-py-ridin-2-yl)-piperazin-1-yl]-1H-quina-zolin-4-one] | 284.5 to 285.5 |
| COc1cc2c(cc1OC)CN(c1nc(=O)c3c(OCCOCc4ccccc4)c(OC)c(OC)cc3[nH]1)CC2 [Example 112, 5-(2-Benzyloxy-ethoxy)-2-(6,7-di-methoxy-3,4-di-hydro-1H-isoquinolin-2-yl)-6,7-di-methoxy-1H-quinazolin-4-one] | 197 to 201.9 |
| COc1cc2[nH]c(N3CCN(c4cc(C)ccn4)CC3)nc(=O)c2c(C)c1OC (as salt: HCl) [Example 43, 6,7-Dimethoxy-5-meth-yl-2-[4-(4-methyl-py-ridin-2-yl)-piperazin-1-yl]-1H-quina-zolin-4-one] | 277.7 to 280 |
| COc1cc2[nH]c(N3CCC(OCc4cccc(/N=C(\C)N(C)C)c4)CC3)nc(=O)c2c(OC)c1OC [Example 81, N,N-Dimethyl-N′-{3-[1-(5,6,7-tri-methoxy-4-oxo-1,4-di-hydro-quinazolin-2-yl)-pipe-ridin-4-yloxy-methyl]-phenyl}-acetamidine] | 56 to 64.9 |
| COc1cc2[nH]c(N3CCN(c4cc(C)ccn4)CC3)nc(=O)c2c(OC)c1OC [Example 25, 5,6,7-Trimethoxy-2-[4-(4-meth-yl-pyridin-2-yl)-pipe-razin-1-yl]-1H-quina-zolin-4-one] | 235.3 to 235.5 |
| CCCC(=N)Nc1cccc2c1CCN(c1nc(=O)c3c(OC)c(OC)c(OC)cc3[nH]1)C2 [Example 115, N-[2-(5,6,7-Trimethoxy-4-oxo-1,4-di-hydro-quina-zolin-2-yl)-1,2,3,4-tetra-hydro-isoquinolin-5-yl]-butyramidine] | 192.2 to 193.5 |
| COCCOc1c(OC)c(OC)cc2[nH]c(N3CCc4cc(OC)c(OC)cc4C3)nc(=O)c12 [Example 105, 2-(6,7-Dimethoxy-3,4-di-hydro-1H-isoquinolin-2-yl)-6,7-di-methoxy-5-(2-meth-oxy-ethoxy)-1H-quina-zolin-4-one] | 202.4 to 204.4 |
| COc1cc2[nH]c(N3CCN(c4nccn4C)CC3)nc(=O)c2c(OC)c1OC [Example 28, 5,6,7-Trimethoxy-2-[4-(1-meth-yl-1H-imidazol-2-yl)-pipe-razin-1-yl]-1H-quina-zolin-4-one] | 227 to 229 |
| COc1cc2[nH]c(N3CCCC3c3cccc(N4CCN=C4C)c3)nc(=O)c2c(OC)c1OC (centres unmarked) [Example 138, 5,6,7-Trimethoxy-2-{2-[3-(2-meth-yl-4,5-di-hydro-imidazol-1-yl)-phe-nyl]-pyrrolidin-1-yl}-1H-quina-zolin-4-one] | 205.1 to 209.1 |
| COc1cc2[nH]c(N3CCc4c(cccc4/N=C(/C)N(C)C)C3)nc(=O)c2c(C)c1OC [Example F-1, N′-[2-(6,7-Dimethoxy-5-methyl-4-oxo-1,4-dihydro-quinazolin-2-yl)-1,2,3,4-tetrahydro-isoquinolin-5-yl]-N,N-dimethyl-acetamidine] | 270.9 to 273.5 |
| COc1cc2c(cc1OC)CN(c1nc(=O)c3c(C)c(OC)c(OC)cc3[nH]1)CC2 (as salt: HCl) [Example 121, 2-(6,7-Dimethoxy-3,4-di-hydro-1H-isoquinolin-2-yl)-6,7-di-methoxy-5-meth-yl-1H-quinazolin-4-one] | 260 to 268 |
| COc1cc2[nH]c(N3CCN(c4cccc[n+]4[O-])CC3)nc(=O)c2c(OC)c1OC [Example 26, 5,6,7-Trimethoxy-2-[4-(1-oxy-py-ridin-2-yl)-pipe-razin-1-yl]-1H-quina-zolin-4-one] | 142.8 to 147.2 |
| COc1cc2c(cc1OC)CN(c1nc(=O)c3c(OC(C)C)c(OC)c(OC)cc3[nH]1)CC2 (as salt: HCl) [Example 107, 2-(6,7-Dimethoxy-3,4-di-hydro-1H-isoquinolin-2-yl)-5-iso-propoxy-6,7-di-methoxy-1H-quina-zolin-4-one] | 253.3 to 261.9 |
| COc1cc2[nH]c(N3CCc4c(cccc4NC(=N)C4CCC4)C3)nc(=O)c2c(C)c1OC [Example 123, N-[2-(6,7-Dimethoxy-5-meth-yl-4-oxo-1,4-di-hydro-quinazolin-2-yl)-1,2,3,4-tetra-hydro-isoquinolin-5-yl]-cyclo-butanecarboxamidine] | 252.1 to 256.1 |
| CNCc1cccc2c1CCN(c1nc(=O)c3c(C)c(OC)c(OC)cc3[nH]1)C2 [Example 6, 6,7-Dimethoxy-5-meth-yl-2-(5-methyl-aminomethyl-3,4-di-hydro-1H-isoquinolin-2-yl)-1H-quin-azolin-4-one] | 241.9 to 245.5 |
| COc1cc2[nH]c(N3CCc4c(cccc4NC(=N)c4ccco4)C3)nc(=O)c2c(C)c1OC [Example 124, N-[2-(6,7-Dimethoxy-5-meth-yl-4-oxo-1,4-di-hydro-quinazolin-2-yl)-1,2,3,4-tetra-hydro-iso-quinolin-5-yl]-furan-2-carboxamidine] | 279 to 282 |
| CCN(C)Cc1cccc2c1CCN(c1nc(=O)c3c(OC)c(OC)c(OC)cc3[nH]1)C2 [Example 3, 2-{5-[(Ethyl-methyl-ami-no)-methyl]-3,4-di-hydro-1H-isoquinolin-2-yl}-5,6,7-tri-methoxy-1H-quinazolin-4-one] | 214 to 216.9 |
| COC[C@@H]1CCCN1CCC1CCN(c2nc(=O)c3c(OC)c(OC)c(OC)cc3[nH]2)CC1 [Example 69, 5,6,7-Trimeth-oxy-2-{4-[2-((S)-2-meth-oxymethyl-pyr-rolidin-1-yl)-ethyl]-pipe-ridin-1-yl}-1H-quina-zolin-4-one] | 78.8 to 91.6 |

| SMILES | melting point [°C] |
| --- | --- |
| COc1cc2c(cc1OC)CN(c1nc(=O)c3c(OC)c(OC)c(OC)cc3[nH]1)CC2 (as salt: HCl) [Example 104, 2-(6,7-Dimethoxy-3,4-di-hydro-1H-isoquinolin-2-yl)-5,6,7-tri-methoxy-1H-quinazolin-4-one] | 267 to 270 |
| COc1cc2[nH]c(N3CCC(OCc4ccccc4S(=O)(=O)N(C)C)CC3)nc(=O)c2c(C)c1OC [Example 61, 2-[1-(6,7-Dimethoxy-5-meth-yl-4-oxo-1,4-di-hydro-quinazolin-2-yl)-pipe-ridin-4-yl-oxymethyl]-N,N-dimethyl-benzene-sulfonamide] | 217.9 to 219.8 |
| COc1cc2[nH]c(N3CCc4c(cccc4NC(=N)c4ccco4)C3)nc(=O)c2c(OC)c1OC [Example 117, N-[2-(5,6,7-Trimethoxy-4-oxo-1,4-di-hydro-quina-zolin-2-yl)-1,2,3,4-tetra-hydro-isoquinolin-5-yl]-furan-2-car-boxamidine] | 223.9 to 225.9 |
| COc1cc2c(cc1OC)CN(c1cc(=O)c3cc(Cl)c(Cl)cc3[nH]1)CC2 [Example 7, 6,7-Dichloro-2-(6,7-di-methoxy-3,4-dihydro-1H-iso-quinolin-2-yl)-1H-quino-lin-4-one] | 266 to 271 |
| COc1ccnc(N2CCN(c3nc(=O)c4c(OC)c(OC)c(OC)cc4[nH]3)CC2)c1 [Example 30, 5,6,7-Trimethoxy-2-[4-(4-meth-oxy-pyridin-2-yl)-pipe-razin-1-yl]-1H-quina-zolin-4-one] | 229 to 231 |
| COc1cc2[nH]c(N3CCC(CCn4ccnc4N)CC3)nc(=O)c2c(OC)c1OC | 252.4 to 253.2 |
| COc1cc2c(cc1OC)CN(c1nc(=O)c3c(OCCO)c(OC)c(OC)cc3[nH]1)CC2 [Example 111, 2-(6,7-Dimethoxy-3,4-di-hydro-1H-isoquinolin-2-yl)-5-(2-hy-droxy-ethoxy)-6,7-di-methoxy-1H-quinazolin-4-one] | 224 to 229 |
| CCN(C)Cc1ccc2c(c1)CN(c1nc(=O)c3c(OC)c(OC)c(OC)cc3[nH]1)CC2 [Example 1, 2-{7-[(Ethyl-methyl-ami-no)-methyl]-3,4-di-hydro-1H-isoquinolin-2-yl}-5,6,7-tri-methoxy-1H-quina-zolin-4-one] | 161.4 to 163.9 |
| COc1cc2[nH]c(N3CCN(c4ccccn4)CC3)nc(=O)c2c(C)c1OC (as salt: HCl) [Example 40, 6,7-Dimethoxy-5-meth-yl-2-(4-pyridin-2-yl-pipe-razin-1-yl)-1H-quina-zolin-4-one] | 286.6 to 293.1 |
| COc1cc2[nH]c(N3CCN(C4=NCCN4C)CC3)nc(=O)c2c(OC)c1OC (as salt: HCl) | 181.6 to 188.8 |
| COc1cc2[nH]c(N3CCC(Cc4cccc(C(=O)O)c4)CC3)nc(=O)c2c(OC)c1OC [Example 79, 3-[1-(5,6,7-Trimethoxy-4-oxo-1,4-di-hydro-quina-zolin-2-yl)-pipe-ridin-4-ylmethyl]-benzoic acid] | 245 to 249 |
| COc1cc2c(cc1OC)CN(c1nc(=O)c3c(Cl)c(OC)c(OC)cc3[nH]1)CC2 [Example 134, 5-Chloro-2-(6,7-di-methoxy-3,4-dihydro-1H-iso-quinolin-2-yl)-6,7-di-methoxy-1H-quinazolin-4-one] | 255.4 to 259.9 |
| COc1cc2[nH]c(N3CCC(OCc4cccc(N(S(C)(=O)=O)S(C)(=O)=O)c4)CC3)nc(=O)c2c(OC)c1OC [Example 80, N-Methane-sulfonyl-N-{3-[1-(5,6,7-tri-methoxy-4-oxo-1,4-di-hydro-quina-zolin-2-yl)-pipe-ridin-4-yloxy-methyl]-phenyl}-methane-sulfonamide] | 100.7 to 160.4 |
| COc1cc2[nH]c(N3CCc4c(cccc4N=C4N(C)CCN4C)C3)nc(=O)c2c(OC)c1OC | 215 to 217.5 |
| COc1cc2c(cc1OC)CN(c1nc(=O)c3c(OCC4CC4)c(OC)c(OC)cc3[nH]1)CC2 [Example 108, 5-Cyclopropylmethoxy-2-(6,7-di-methoxy-3,4-di-hydro-1H-isoquinolin-2-yl)-6,7-di-methoxy-1H-quinazolin-4-one] | 214 to 215.8 |
| COc1cc2[nH]c(N3CCC(CCN4CCN=C4C)CC3)nc(=O)c2c(C)c1OC | 266.1 to 269.5 |
| COC[C@H]1CCCN1CCC1CCN(c2nc(=O)c3c(C)c(OC)c(OC)cc3[nH]2)CC1 [Example 57, 6,7-Dimethoxy-2-{4-[2-((R)-2-meth-oxymethyl-pyr-rolidin-1-yl)-ethyl]-pipe-ridin-1-yl}-5-meth-yl-1H-quinazolin-4-one] | 219 to 221.9 |
